One assay deals with soluble human BACE1 catalytic domain (Homo sapiens (Human), UniProt P56817). The assay can be described thus: BACE1 HTRF FRET Assay. To be noted: read-out: BACE1 Ki.
Chain of soluble human BACE1 catalytic domain (P56817 75-416): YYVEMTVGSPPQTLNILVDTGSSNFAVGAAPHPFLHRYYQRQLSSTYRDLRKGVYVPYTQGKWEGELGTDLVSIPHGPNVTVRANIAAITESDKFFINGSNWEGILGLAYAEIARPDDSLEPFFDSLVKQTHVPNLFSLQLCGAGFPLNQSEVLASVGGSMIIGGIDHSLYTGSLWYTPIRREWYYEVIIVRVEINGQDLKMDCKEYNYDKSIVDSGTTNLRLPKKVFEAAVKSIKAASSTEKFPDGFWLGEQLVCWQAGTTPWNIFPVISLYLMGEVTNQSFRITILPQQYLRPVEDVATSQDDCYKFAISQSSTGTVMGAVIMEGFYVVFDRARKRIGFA
`COc1cccc([C@@]2(C)C(=N)N[C@](C)(c3cc(F)ccc3F)CS2(=O)=O)c1` [Example 32e-a]: the Ki came out at 1100 nM.

In the case of `CC1(C)C(=N)N[C@](C)(c2sc(-c3ccnc(C4CC4)c3)cc2F)CS1(=O)=O` [Example 27av], the Ki worked out at 663 nM.

As for `C[C@@]1(c2ccccn2)C(=N)N[C@](C)(c2sc(-c3cccc(-c4nnco4)c3)cc2F)CS1(=O)=O` [Example 27bp-b], the Ki came to 396 nM.

With `C[C@@]1(c2cccc(F)c2)C(=N)N[C@](C)(c2sc(-c3cccc(C#N)c3)cc2F)CS1(=O)=O` [Example 27br-b], the Ki was determined as 4930 nM.

In the case of `CC1(C)C(=N)N[C@](C)(c2sc(-c3ccc4nncn4c3)cc2Cl)CS1(=O)=O` [Example 27p], the inhibitory constant (Ki) came out at 2530 nM.

On to `C[C@@]1(c2sc(-c3cncc(C#N)c3)cc2F)CS(=O)(=O)[C@@](C)(c2ccccn2)C(=N)N1` [Example 27bq-a], for which the inhibition constant Ki turned out to be 268 nM.

For the compound `CC1(C)C(=N)N[C@](C)(c2cc(-c3cccc(-c4ccno4)c3)cs2)CS1(=O)=O` [Example 27aj], the inhibition constant Ki came to 113 nM.

As for `COc1cccn2cc(-c3cc(Cl)c([C@]4(C)CS(=O)(=O)C(C)(C)C(=N)N4)s3)nc12` [Example 28a], the inhibitory constant (Ki) is 804 nM.

Turning to `COc1ncc(-c2cc(Cl)c([C@]3(C)CS(=O)(=O)C(C)(C)C(=N)N3)s2)cn1` [Example 27y], the Ki stood at 1720 nM.

For the compound `C[C@@]1(c2cccc(Br)c2)C(=N)N[C@](C)(c2ccc(F)cc2F)CS1(=O)=O` [Example 32g-b], the Ki is 8830 nM.

With `Cc1nnc(-c2ccc(F)c(-c3cc(F)c([C@]4(C)CS(=O)(=O)C(C)(C)C(=N)N4)s3)c2)o1` [Example 27ax], the Ki was found to be 858 nM.

Still in this assay, the particulars now being: read-out: BACE1 Ki; Ki calculated from IC50 using the Cheng-Prusoff equation.
Consider `CC1(C)C(=N)N[C@](C)(c2sc(C(=O)NCc3ncccc3Cl)cc2Cl)CS1(=O)=O` [Example 22a], for which the Ki was 1400 nM.

As to `C=CC[C@@]1(C)C(=N)N[C@](C)(c2cc(NC(=O)c3cnc(OC)cn3)ccc2F)CS1(=O)=O` [Example 9dm-a], the Ki was 4 nM.

Take `CC1(C)C(=N)N[C@](C)(c2cc(NC(=O)c3ccc(F)cn3)cc(Cl)c2F)CS1(=O)=O` [Example 9s]: the Ki is 6.3 nM.

As for `CC1(C)C(=N)N[C@](C)(c2cc(NC(=O)C3CCC3)cc(F)c2F)CS1(=O)=O` [Example 9bt], the Ki was 721 nM.

In the case of `CC1(C)C(=N)N[C@](C)(c2nc(-c3cccc(C#N)c3)ccc2F)CS1(=O)=O` [Example 16b], the Ki was 4960 nM.

As to `CC1(C)C(=N)N[C@](C)(c2sc(-c3cccc(-c4nnco4)c3)cc2Cl)CS1(=O)=O` [Example 27b], the Ki was 8.2 nM.

In the case of `C[C@]1(CC2CC2)C(=N)N[C@](C)(c2cc(NC(=O)c3ccc(F)cn3)ccc2F)CS1(=O)=O` [Example 9dh-a], the Ki was 7.5 nM.

Consider `COc1ccc(C(=O)Nc2ccc(F)c([C@]3(C)CS(=O)(=O)[C@@](C)(C4CCOCC4)C(=N)N3)c2)nc1` [Example 9dt-a], for which the Ki is 3 nM.

For the compound `CC1(C)C(=N)N[C@](C)(c2sc(-c3nnc(-c4ccc(C#N)cc4)o3)cc2Cl)CS1(=O)=O` [Example 27be], the Ki is 49.2 nM.

Turning to `CC1(C)C(=N)N[C@](C)(c2sc(C(=O)NCc3ncccn3)cc2Cl)CS1(=O)=O` [Example 22b], the inhibition constant Ki was 3520 nM.

Consider `C[C@@]1(c2cc(NC(=O)c3ccc(C(F)(F)F)cn3)ccc2F)CS(=O)(=O)[C@@](C)(c2cccc(F)c2)C(=N)N1` [Example 9de-a], for which the inhibition constant (Ki) is 3.5 nM.

For the compound `CC1(C)C(=N)N[C@](C)(c2cc(NC(=O)c3cnc(C(F)F)cn3)ccc2F)CS1(=O)=O` [Example 9q], the inhibition constant (Ki) is 3.6 nM.

For the compound `CC1(C(=O)Nc2cc(F)c(F)c([C@]3(C)CS(=O)(=O)C(C)(C)C(=N)N3)c2)COC1` [Example 9bp], the inhibition constant Ki is 1150 nM.

Turning to `CC1(C)C(=N)N[C@](C)(c2cc(NC(=O)C3CCOCC3)ccc2F)CS1(=O)=O` [Example 9av], the Ki is 8580 nM.

The same assay, now with this note: read-out: BACE1 inhibition, Ki.
On to `C[C@@]1(c2cc(N)ccc2F)CS(=O)(=O)[C@@](C)(c2cccc(F)c2)C(=N)N1` [Entry 60], for which the Ki was determined as 1100 nM.

For the compound `C[C@@]1(c2sc(Br)cc2F)CS(=O)(=O)[C@@](C)(c2ccccn2)C(=N)N1` [Entry 85], the Ki was found to be 1500 nM.

Usually Ki stands for the equilibrium dissociation constant of an inhibitor or competing ligand from its target.

The record behind these values is patent US9499502B2, “5-substituted iminothiazines and their mono- and dioxides as BACE inhibitors, compositions, and their use” (Merck Sharp & Dohme Corp., priority 2011, dated 2016).
